According to the supplement of paper PMC11061612:

Legend:
Capivasertib = compound: C1CN(CCC1(C(=O)N[C@@H](CCO)C2=CC=C(C=C2)Cl)N)C3=NC=NC4=C3C=CN4 [Capivasertib]
Summary of the method: (§1)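 Cancer cell lines were dosed for 72 hours (final DMSO typically 0.2%) after 24 hours at 37°C and 5% CO2 in 1536-well plates containing 7.5 μl DMEM/F12 or RPMI with 10% FBS. Viability came from CellTiter-Glo 2.0 luminescence, scaled between blank-well and DMSO-well means, and dose responses were fitted to a two-parameter logistic curve with a non-linear mixed effects model. The single-agent IC50 was obtained from this fit.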

AZD1775 = compound: C=CCn1c(=O)c2cnc(Nc3ccc(N4CCN(C)CC4)cc3)nc2n1-c1cccc(C(C)(C)O)n1 [AZD1775]
Summary of the method: as §1

Trametinib = compound: CC(=O)Nc1cccc(-n2c(=O)n(C3CC3)c(=O)c3c(Nc4ccc(I)cc4F)n(C)c(=O)c(C)c32)c1 [Trametinib]; settings: max 1 µM
Summary of the method: as §1

Palbociclib = compound: CC(=O)c1c(C)c2cnc(Nc3ccc(N4CCNCC4)cn3)nc2n(C2CCCC2)c1=O [Palbociclib]; settings: max 10 µM
Summary of the method: as §1

AZD1390 = compound: CC(C)n1c(=O)n(C)c2cnc3cc(F)c(-c4ccc(OCCCN5CCCCC5)nc4)cc3c21 [AZD1390]; settings: max 0.3 µM
Summary of the method: as §1

Venetoclax = compound: CC1(C)CCC(CN2CCN(c3ccc(C(=O)NS(=O)(=O)c4ccc(NCC5CCOCC5)c([N+](=O)[O-])c4)c(Oc4cnc5[nH]ccc5c4)c3)CC2)=C(c2ccc(Cl)cc2)C1 [Venetoclax]; settings: max 1 µM
Summary of the method: as §1

Dasatinib = compound: CC1=C(C(=CC=C1)Cl)NC(=O)C2=CN=C(S2)NC3=CC(=NC(=N3)C)N4CCN(CC4)CCO [Dasatinib]; settings: max 2 µM
Summary of the method: as §1

SG3199 = compound: CC1=CN2[C@@H](C1)C=NC3=CC(=C(C=C3C2=O)OC)OCCCCCOC4=C(C=C5C(=C4)N=C[C@@H]6CC(=CN6C5=O)C)OC [SG3199]; settings: max 0.001 µM
Summary of the method: as §1

AZD2811 = compound: CCN(CCO)CCCOc1ccc2c(Nc3cc(CC(=O)Nc4cccc(F)c4)[nH]n3)ncnc2c1 [AZD2811]; settings: max 1 µM
Summary of the method: as §1

SN-38 = compound: CCc1c2c(nc3ccc(O)cc13)-c1cc3c(c(=O)n1C2)COC(=O)[C@]3(O)CC [SN-38]; settings: max 0.3 µM
Summary of the method: as §1

AZD0156 = compound: CN(C)CCCOc1ccc(-c2ccc3ncc4c(c3c2)n(C2CCOCC2)c(=O)n4C)cn1 [AZD0156]
Summary of the method: as §1

AZD4320 = compound: CN(CC[C@H](CSC1=CC=CC=C1)NC2=C(C=C(C=C2)S(=O)(=O)NC(=O)C3=CC=C(C=C3)N4CCC(CC4)[C@H](C5=CC=CC=C5C6=CC=C(C=C6)Cl)O)S(=O)(=O)C(F)(F)F)CCO [AZD4320]; settings: max 1 µM
Summary of the method: as §1

Alisertib = compound: COc1cc(Nc2ncc3c(n2)-c2ccc(Cl)cc2C(c2c(F)cccc2OC)=NC3)ccc1C(=O)O [Alisertib]; settings: max 10 µM
Summary of the method: as §1

Gefitinib = compound: COc1cc2ncnc(Nc3ccc(F)c(Cl)c3)c2cc1OCCCN1CCOCC1 [Gefitinib]; settings: max 10 µM
Summary of the method: as §1

Prexasertib = compound: COc1cccc(OCCCN)c1-c1cc(Nc2cnc(C#N)cn2)n[nH]1 [Prexasertib]; settings: max 1 µM
Summary of the method: as §1

Doxorubicin = compound: COc1cccc2c1C(=O)c1c(O)c3c(c(O)c1C2=O)C[C@@](O)(C(=O)CO)C[C@@H]3O[C@H]1C[C@H](N)[C@H](O)[C@H](C)O1 [Doxorubicin]; settings: max 1 µM
Summary of the method: as §1

AZD5153 = compound: COc1nnc2ccc(N3CCC(c4ccc(OCCN5CCN(C)C(=O)[C@H]5C)cc4)CC3)nn12 [AZD5153]; settings: max 1 µM
Summary of the method: as §1

Lapatinib = compound: CS(=O)(=O)CCNCc1ccc(-c2ccc3ncnc(Nc4ccc(OCc5cccc(F)c5)c(Cl)c4)c3c2)o1 [Lapatinib]; settings: max 10 µM
Summary of the method: as §1

AZD8186 = compound: C[C@@H](Nc1cc(F)cc(F)c1)c1cc(C(=O)N(C)C)cc2c(=O)cc(N3CCOCC3)oc12 [AZD8186]; settings: max 3 µM
Summary of the method: as §1

Crizotinib = compound: C[C@@H](Oc1cc(-c2cnn(C3CCNCC3)c2)cnc1N)c1c(Cl)ccc(F)c1Cl [Crizotinib]; settings: max 10 µM
Summary of the method: as §1

Savolitinib = compound: C[C@@H](c1ccc2nccn2c1)n1nnc2ncc(-c3cnn(C)c3)nc21 [Savolitinib]; settings: max 1 µM
Summary of the method: as §1

AZD6738 = compound: C[C@@H]1COCCN1C2=NC(=NC(=C2)C3(CC3)[S@](=N)(=O)C)C4=C5C=CNC5=NC=C4 [AZD6738]; settings: max 10 µM
Summary of the method: as §1

AZD5991 = compound: Cc1c2c(nn1C)CSCc1cc(n(C)n1)CSc1cc(c3ccccc3c1)OCCCc1c(C(=O)O)n(C)c3c-2c(Cl)ccc13 [AZD5991]; settings: max 1 µM
Summary of the method: as §1

AZD7648 = compound: Cc1cc2ncnn2cc1Nc1ncc2c(n1)n(C1CCOCC1)c(=O)n2C [AZD7648]; settings: max 10 µM
Summary of the method: as §1

Taselisib = compound: Cc1nc(-c2cn3c(n2)-c2ccc(-c4cnn(C(C)(C)C(N)=O)c4)cc2OCC3)n(C(C)C)n1 [Taselisib]; settings: max 10 µM
Summary of the method: as §1

Selumetinib = compound: Cn1cnc2c(F)c(Nc3ccc(Br)cc3Cl)c(C(=O)NOCCO)cc21 [Selumetinib]; settings: max 10 µM
Summary of the method: as §1

Olaparib = compound: O=C(c1cc(Cc2n[nH]c(=O)c3ccccc23)ccc1F)N1CCN(C(=O)C2CC2)CC1 [Olaparib]
Summary of the method: as §1

Row | Cell Line | IC50, cell viability 72 h (Capivasertib; max 10 µM) | IC50, cell viability 72 h (AZD1775; max 3 µM) | IC50, cell viability 72 h (Trametinib) | IC50, cell viability 72 h (Palbociclib) | IC50, cell viability 72 h (AZD1390) | IC50, cell viability 72 h (Venetoclax) | IC50, cell viability 72 h (Dasatinib) | IC50, cell viability 72 h (SG3199) | IC50, cell viability 72 h (AZD2811) | IC50, cell viability 72 h (SN-38) | IC50, cell viability 72 h (AZD0156; max 3 µM) | IC50, cell viability 72 h (AZD4320) | IC50, cell viability 72 h (Alisertib) | IC50, cell viability 72 h (Gefitinib) | IC50, cell viability 72 h (Prexasertib) | IC50, cell viability 72 h (Doxorubicin) | IC50, cell viability 72 h (AZD5153) | IC50, cell viability 72 h (Lapatinib) | IC50, cell viability 72 h (AZD8186) | IC50, cell viability 72 h (Crizotinib) | IC50, cell viability 72 h (Savolitinib) | IC50, cell viability 72 h (AZD6738) | IC50, cell viability 72 h (AZD5991) | IC50, cell viability 72 h (AZD7648) | IC50, cell viability 72 h (Taselisib) | IC50, cell viability 72 h (Selumetinib) | IC50, cell viability 72 h (Olaparib; max 10 µM) | IC50, cell viability 72 h (AZD1775; max 1 µM) | IC50, cell viability 72 h (AZD0156; max 1 µM) | IC50, cell viability 72 h (Capivasertib; max 3 µM) | IC50, cell viability 72 h (Olaparib; max 3 µM)
1 | CAL-78 (Chondrosarcoma) | > 10000 nM | 898 nM | > 1000 nM | > 10000 nM | > 300 nM | > 1000 nM | > 2000 nM | > 1 nM | > 1000 nM | 54.1 nM | > 3000 nM | > 1000 nM | 1780 nM | > 10000 nM | 226 nM | > 1000 nM | > 1000 nM | > 10000 nM | > 3000 nM | > 10000 nM | > 1000 nM | > 10000 nM | 261 nM | > 10000 nM | > 10000 nM | > 10000 nM | > 10000 nM |  |  |  | 
2 | NCI-H1793 (Lung Adenocarcinoma) | > 10000 nM | > 3000 nM | > 1000 nM | > 10000 nM | > 300 nM | > 1000 nM | 1100 nM | > 1 nM | > 1000 nM | > 300 nM | > 3000 nM | > 1000 nM | > 10000 nM | > 10000 nM | 938 nM | > 1000 nM | > 1000 nM | > 10000 nM | > 3000 nM | > 10000 nM | > 1000 nM | > 10000 nM | > 1000 nM | > 10000 nM | > 10000 nM | > 10000 nM | > 10000 nM |  |  |  | 
3 | NCI-H1694 (Small Cell Lung Carcinoma) | > 10000 nM |  | > 1000 nM | > 10000 nM | > 300 nM | > 1000 nM | > 2000 nM | > 1 nM | > 1000 nM | 3.95 nM |  | 462 nM | > 10000 nM | > 10000 nM | 66.9 nM | 727 nM | > 1000 nM | > 10000 nM | > 3000 nM | > 10000 nM | > 1000 nM | 9060 nM | 109 nM | > 10000 nM | > 10000 nM | > 10000 nM | > 10000 nM | > 1000 nM | > 1000 nM |  | 
4 | BB49-HNC (Head and Neck Carcinoma) |  | 309 nM |  |  |  |  |  |  |  |  | > 3000 nM |  |  |  |  |  |  |  |  |  |  |  |  |  |  |  |  |  |  | 1990 nM | > 3000 nM
5 | J82 (Bladder Carcinoma) | > 10000 nM | > 3000 nM | > 1000 nM | > 10000 nM | > 300 nM | > 1000 nM | > 2000 nM | > 1 nM | > 1000 nM | 80.5 nM | > 3000 nM | > 1000 nM | > 10000 nM | > 10000 nM | > 1000 nM | > 1000 nM | > 1000 nM | > 10000 nM | > 3000 nM | > 10000 nM | > 1000 nM | > 10000 nM | > 1000 nM | > 10000 nM | > 10000 nM | > 10000 nM | > 10000 nM |  |  |  | 
6 | JiyoyeP-2003 (Burkitt's Lymphoma) | 2320 nM | 597 nM | > 1000 nM | 4700 nM | > 300 nM | > 1000 nM | 1020 nM | > 1 nM | > 1000 nM | 14.1 nM | > 3000 nM | 403 nM | 271 nM | > 10000 nM | 11.7 nM | 172 nM | 49.2 nM | > 10000 nM | > 3000 nM | > 10000 nM | > 1000 nM | 1370 nM | 814 nM | > 10000 nM | 9670 nM | > 10000 nM | > 10000 nM |  |  |  | 
7 | SNU-C5 (Colorectal Carcinoma) | > 10000 nM | 507 nM | 563 nM | > 10000 nM | > 300 nM | > 1000 nM | > 2000 nM | > 1 nM | > 1000 nM | 43.5 nM | > 3000 nM | > 1000 nM | 9360 nM | > 10000 nM | 21.8 nM | > 1000 nM | 578 nM | > 10000 nM | > 3000 nM | > 10000 nM | > 1000 nM | 4000 nM | > 1000 nM | > 10000 nM | 2010 nM | > 10000 nM | > 10000 nM |  |  |  | 
8 | HPAC (Pancreatic Carcinoma) | > 10000 nM | 1500 nM | 22.7 nM | > 10000 nM | > 300 nM | > 1000 nM | > 2000 nM | > 1 nM | > 1000 nM | > 300 nM | > 3000 nM | > 1000 nM | 3960 nM | > 10000 nM | 81.6 nM | > 1000 nM | 579 nM | > 10000 nM | > 3000 nM | 6650 nM | > 1000 nM | > 10000 nM | > 1000 nM | > 10000 nM | 2380 nM | 3160 nM | > 10000 nM |  |  |  | 
9 | C3A (Hepatocellular Carcinoma) | > 10000 nM | 2480 nM | 657 nM | > 10000 nM | > 300 nM | > 1000 nM | > 2000 nM | > 1 nM | > 1000 nM | 143 nM | > 3000 nM | > 1000 nM | > 10000 nM | > 10000 nM | 524 nM | > 1000 nM | > 1000 nM | > 10000 nM | > 3000 nM | > 10000 nM | > 1000 nM | > 10000 nM | > 1000 nM | > 10000 nM | > 10000 nM | 7960 nM | > 10000 nM |  |  |  | 
